Source: patent US20240415878A1, “Compositions and Methods for Modulating Mitochondrial Function” (Board of Regents, The University of Texas System, priority 2021, published 2024)

Columns and labels:
HIF-1α [1] = assay: HIF-1α stabilization in human kidney cell line (HK-2); format: cell-based; details: HK-2 treated with CoCl2, metabolites 6 hours
HIF-1α [2] = assay: HIF-1α stabilization in COS-7 cells; format: cell-based
Description: HIF-1α is stabilized in Mrs2−/− mice. To examine the intrinsic role of Mrs2, Mrs2^−/− mice were challenged to LPS-induced inflammatory response. It was noticed that there was a barely detectable HIF-1α stabilization in control but a significant HIF-1α protein accumulation following LPS stimulation in Mrs2^−/− hepatocytes (Daw et al., 2020). […] It was envisioned that loss of Mrs2 in hepatocyte mitochondria might control metabolite fluxes that regulates HIF-1α stability under normoxic conditions. HIF-1α is the most commonly studied transcription factor that responds to oxygen tension and its stabilization controls numerous metabolic cascades, including glycolysis and oxidative phosphorylation (Kaelin and Ratcliffe, 2008; Lum et al., 2007; Semenza, 2013). A targeted metabolite screen was conducted to identify whether these metabolites potentially altered in Mrs2^−/− control HIF-1α stabilization. WT hepatocytes were treated with the PHD inhibitor FG-4952 for 6 hours in the presence or absence of metabolites (Buckley et al., 2012). […] Next it was explored whether citric acid mediated HIF-1α destabilization is a hydroxylation dependent mechanism by reconstitution of hydroxylation-dead mutant HIF-1α in COS-7 cells (Yan et al., 2007). […] Next tested the potency of citric acid and sodium citrate was tested. Hepatocytes isolated from WT or Mrs2^−/− mice were treated for 6 hours. […]

HIF-1α [3] = test system: HIF-1α
Description: HIF-1α is stabilized in Mrs2−/− mice. To examine the intrinsic role of Mrs2, Mrs2^−/− mice were challenged to LPS-induced inflammatory response. It was noticed that there was a barely detectable HIF-1α stabilization in control but a significant HIF-1α protein accumulation following LPS stimulation in Mrs2^−/− hepatocytes (Daw et al., 2020). […] It was envisioned that loss of Mrs2 in hepatocyte mitochondria might control metabolite fluxes that regulates HIF-1α stability under normoxic conditions. HIF-1α is the most commonly studied transcription factor that responds to oxygen tension and its stabilization controls numerous metabolic cascades, including glycolysis and oxidative phosphorylation (Kaelin and Ratcliffe, 2008; Lum et al., 2007; Semenza, 2013). A targeted metabolite screen was conducted to identify whether these metabolites potentially altered in Mrs2^−/− control HIF-1α stabilization. WT hepatocytes were treated with the PHD inhibitor FG-4952 for 6 hours in the presence or absence of metabolites (Buckley et al., 2012). […] Next it was explored whether citric acid mediated HIF-1α destabilization is a hydroxylation dependent mechanism by reconstitution of hydroxylation-dead mutant HIF-1α in COS-7 cells (Yan et al., 2007). […] Next tested the potency of citric acid and sodium citrate was tested. Hepatocytes isolated from WT or Mrs2^−/− mice were treated for 6 hours. HIF-1α stabilization was less affected by di- or tri-sodium citrate than by citric acid (FIG. 9G). […] The citric acid-mediated HIF-1α destabilization was intact in multiple chemical modalities (FIG. 9H) and the intracellular chelation of Mg^2+ ions suppressed FG-4952-induced HIF-1α stabilization (FIG. 9I). […] Furthermore, COS-7 cells were more sensitive to the HIF-1α stabilizing effect compared to hepatocytes. […] Next HIF-1α abundance was tested in liver tissues harvested from dietary cohorts. HIF-1α protein expression/stabilization was prominent in both Mrs2^−/− and Mrs2^−/− WD, whereas HIF-1α protein was nearly completely absent in WT WD (FIG. 9M). This supports the elevation of HIF-1α protein level as a key mechanism driving transcription changes in Mrs2^−/− WD livers.
Immunoblotting. Crushed tissues were homogenized in lysis buffer (ThermoFisher) on ice for one minute (20-30 strokes) using an automatic Dounce homogenizer set to 2000 RPM. Whole cell lysate was prepared in lysis buffer (Abcam) using 3 sets of 3-second sonication (power level 3) intervals on ice. Protein concentration was estimated using Pierce BCA assay kit and samples were prepared and heated for 90° C. for 5 minutes. Equal amounts of protein were loaded and separated on 4%-12% Bis-Tris polyacrylamide gel (Thermo Fisher Scientific), transferred to a PVDF membrane, blocked for 1-2 h using 5% fat free skim milk, washed and finally, probed with corresponding antibodies as specified below. Antibodies were from Cell Signaling Technology (HIF-1α and Hydroxy HIF-1α dilution 1:3000, MCU dilution 1.5000, MICU1 dilution 1:3000), Abcam Abcam (CPT-1a, CPT-2, OXPHOS cocktail dilution 1:3000), ZYMED Laboratories (β-actin; dilution 1:1,000), and Amersham (secondary antibodies conjugated with peroxidase). Development was done using X-ray film using a series of timed exposures and Image J was used for densitometric analysis on scanned film images.

Mrs2 [4] = biological target: T1, Mrs2 (Mus musculus, UniProt Q5NCE8); assay: Mrs2 inhibition in intact hepatocytes loaded with Mag-Green-AM, confocal, L-lactate stimulation; format: cell-based, murine
T1 construct: endogenous in cells; host or cells: primary murine hepatocytes (C57BL/6J mice)
T1 sequence (Q5NCE8 54-434): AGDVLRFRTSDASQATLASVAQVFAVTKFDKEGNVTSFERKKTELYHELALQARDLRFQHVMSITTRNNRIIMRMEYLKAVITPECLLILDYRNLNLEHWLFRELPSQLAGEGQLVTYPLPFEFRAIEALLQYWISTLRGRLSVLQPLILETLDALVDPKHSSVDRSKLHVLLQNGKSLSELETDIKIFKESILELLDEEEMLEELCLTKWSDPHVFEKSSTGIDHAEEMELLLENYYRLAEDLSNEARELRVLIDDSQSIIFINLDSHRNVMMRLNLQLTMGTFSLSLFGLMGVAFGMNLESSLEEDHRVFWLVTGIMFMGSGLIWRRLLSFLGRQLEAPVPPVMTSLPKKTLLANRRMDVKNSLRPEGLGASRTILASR
Procedure: Bacterial CorA forms a pentameric complex that selectively drives Mg2+ uptake in an electrogenic manner. […] Mrs2 is the eukaryotic homologue of CorA and contains two transmembrane domains with a well-conserved F/Y-G-M-N motif; therefore, CorA blockers were tested to determine if they alter Mrs2-mediated mMg^2+ uptake (Moomaw and Maguire, 2008). Digitonin permeabilized hepatocytes were utilized to measure the inhibitory effect and determine its IC50. Permeabilized cells were treated with CPACC followed by a 1 mM bolus of MgCl2 (FIG. 10B). A 1 mM Mg^2+ bolus was added after baseline recording, and the extramitochondrial Mg^2+ clearance was used as a read-out for Mrs2-mediated mMg^2+ uptake using Mag-Green as a Mg^2+ indicator. […] We next investigated Mrs2 inhibition in intact hepatocytes loaded with Mag-Green-AM. […] Next CPACC was examined to determine if it had any effect on MCU-mediated mCa^2+ uptake in permeabilized cells. […] The availability of the compound to intact cells was measured using graphite furnace atomic absorption spectroscopy (GFAAS) and bicinchoninic acid in parallel. […] Encouraged by the potent inhibitory effect of CPACC and cellular permeability, we next measured the cytotoxicity of CPACC in cells. […]
Evaluation of dose dependent Mrs2 inhibition by confocal live cell imaging system. […] Data was quantified using Leica Application Suite X.

Mrs2 [5] = biological target: T1, Mrs2; assay: Mrs2-mediated mMg2+ uptake in digitonin permeabilized hepatocytes (Mag-Green, extramitochondrial Mg2+ clearance); format: cell-based, murine; details: permeabilized cell system
Procedure: Bacterial CorA forms a pentameric complex that selectively drives Mg2+ uptake in an electrogenic manner. […] Mrs2 is the eukaryotic homologue of CorA and contains two transmembrane domains with a well-conserved F/Y-G-M-N motif; therefore, CorA blockers were tested to determine if they alter Mrs2-mediated mMg^2+ uptake (Moomaw and Maguire, 2008). Digitonin permeabilized hepatocytes were utilized to measure the inhibitory effect and determine its IC50. Permeabilized cells were treated with CPACC followed by a 1 mM bolus of MgCl2 (FIG. 10B). A 1 mM Mg^2+ bolus was added after baseline recording, and the extramitochondrial Mg^2+ clearance was used as a read-out for Mrs2-mediated mMg^2+ uptake using Mag-Green as a Mg^2+ indicator. […] We next investigated Mrs2 inhibition in intact hepatocytes loaded with Mag-Green-AM. […] Next CPACC was examined to determine if it had any effect on MCU-mediated mCa^2+ uptake in permeabilized cells. […] The availability of the compound to intact cells was measured using graphite furnace atomic absorption spectroscopy (GFAAS) and bicinchoninic acid in parallel.
Spectrofluorimetric measurement of mitochondrial Mg^2+ and Ca^2+ dynamics and citrate mediated MagGreen fluorescence quenching. Fluorescence measurements were conducted in a multiwavelength excitation dual wavelength emission spectrofluorometer (Delta RAM, PTI, HORIBA). […]

Compound | HIF-1α destabilizing activity (HIF-1α [1]) | constitutively stabilized (hydroxylation-dead) HIF-1α mutant (HIF-1α [2]) | FG-4592 dependent HIF-1α stabilization (HIF-1α [2]; 10 mM) | response of hepatocytes from Mrs2^−/− mice to the destabilizing effect (HIF-1α [3]) | HIF-1α destabilizing effect in homogenate (HIF-1α [3]; FG-4592 treated WT hepatocyte homogenate) | time course of HIF-1α destabilization (HIF-1α [3]; FG-4592 treated hepatocytes) | effect on HIF-1α stabilized by PHD inhibitor (HIF-1α [3]; WT hepatocytes, FG-4952, 6 hours) | concentration at which HIF-1α destabilization was observed (HIF-1α [3]; WT hepatocytes, PHD inhibitor, 6 hours) | effect on Mrs2 in intact hepatocytes (Mrs2 [4]) | inhibitory effect on Mrs2 activity (Mrs2 [5])
O=C(O)CC(O)(CC(=O)O)C(=O)O [citric acid] | replicates the observations in hepatocytes | unaffected | completely blunted | partially resistant | partly maintained | very rapid and robust | destabilized HIF-1α | ≥ 6 mM | – | –
N.N.N.N.N.N.[Cl-].[Cl-].[Cl-].[Co+3] [cobalt(III)hexaammine, Hexaamminecobalt (III) chloride, reference compound] | – | – | – | – | – | – | – | – | absent | limited inhibition
